Values quoted from earlier work in US20250387447A1, “Herbal composition for use in the improvement of physical and mental health recovery and maintenance, including the improvement of cognitive function or prevention of cognitive decline” (Conka Elite Ltd, priority 2022, published 2025).

System: neurons

For `COc1cc(/C=C/C(=O)CC(=O)/C=C/c2ccc(O)c(OC)c2)ccc1O` [curcumin], the “neuron death caused by oxygen-glucose deprivation” value is given as “protects neurons from death” and the expression of thioredoxin (Nrf2 pathway) is given as “activate the expression of thioredoxin”.
